Read-outs that look alike come from different tables or passages of the source.
How the values were obtained:
[1] = DCM
[2] = system: Ba/F3 (EGFRwt); assay: Cellular growth inhibition assay (CellTiter-Glo), Ba/F3 (EGFRwt); type: cell-based; conditions: Mus musculus, BaF3, 72 h; Ba/F3 (Wild type) with 10 ng/ml rhEGF, 3 days of incubation
Description: Example E. Cellular Growth Inhibition Assay
Ba/F3(Empty vector) (Signosis), Ba/F3(Wild type) (Signosis), Ba/F3(L^858R+T790M) (Signosis), Ba/F3(A767_dupASV) (Signosis), Ba/F3(D770_N771insSVD) (Signosis), Ba/F3(H773_V774insNPH) (Signosis) were seeded at a density of 4000 cells per well in a CellBIND® 384-well Flat Clear Bottom Black Polystyrene Microplates (Coming, USA, Cat #3770) in 45 μl total volume of RPMI (PanEco, Cat #C330, Russia) with […] (HyClone, Cat #SV30160.03) and with 10 ng/ml rmIL-3 (RD systems, USA, Cat #403-ML-025) (for BaBF3(Empty vector)) and with 10 ng/ml rhEGF (ThermoFisher, USA, Cat #PHG0311L) (for BaCF3(Wild type)). 500× compounds solutions in DMSO (Sigma Cat #D2650) were prepared into Cmpnds plate (DiamondWell Plate, Axigen, Cat #P-384-120SQ-C—S) and DMSO only control was included. 1.l of 500× compounds (Cmpnds plate) was added to 49 µl of culture medium into Dilution plate (Diamond Well Plate, Axigen, Cat #P-384-120SQ-C—S), mixed and then 5 μl of 10× compounds solutions were transferred to cells followed by centrifugation at 100 g for 1 min. Final DMSO concentration was 0.2% o. After 3 days of incubation 10.l of CellTiter-Glo (Promega, CAT #G7572) were added to the cells, plate was centrifuged at 100 g for 1 min and luminescence signal was measured using Microplate Reader (CLARIOStar).

[3] = system: Ba/F3 (A767_dupASV); assay: Cellular growth inhibition assay (CellTiter-Glo), Ba/F3 (A767_dupASV); type: cell-based; conditions: Mus musculus, BaF3, 72 h; 3 days of incubation; read-out: Ba/F3 (A767_dup ASV) CC50
Method in brief: (§1)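 Ba/F3 cells expressing the EGFR variants were seeded at 4000 cells/well in RPMI with FBS, with 10 ng/ml rhEGF added for the wild-type line, and treated with compound at 0.2% final DMSO. Viability was read by CellTiter-Glo luminescence after 3 days.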

[4] = system: Ba/F3 (L858R + T790M); assay: Cellular growth inhibition assay (CellTiter-Glo), Ba/F3 (L858R+T790M); type: cell-based; conditions: Mus musculus, BaF3, 72 h; 3 days of incubation
Method in brief: as §1

[5] = biological target: EGFR (D770_N771insNPG) (Homo sapiens (Human), UniProt P00533, INS770NPG); assay: Potency of EGFR (D770_N771insNPG) enzymatic activity inhibition (ADP-Glo luminescence); type: biochemical; conditions: recombinant EGFR (D770_N771insNPG) 1.5 nM, Poly(Glu, Tyr) substrate, ATP, 1 h at rt
Description: Example B. Primary Assay Used to Determine Potency of EGFR (D770_N771insNPG) Enzymatic Activity Inhibition
Compounds activity was determined using recombinant EGFR (D770 N771insNPG) protein (SignalChem, #E10-132GG-10) and Poly(Glu, Tyr) substrate (Sigma-Aldrich, #P0275) in an in vitro enzymatic reaction. The enzymatic assay used to determine activity was a Luminescence assay using a Microplate Reader ClarioStar Plus. The enzymatic reaction was carried out in assay buffer (40 mM TRIS-HCl pH 7.4-7.6, 20 mM MgCl2, 2.5 mM MnCl2, 0.05 mM DTT, 0.1 mg/ml BSA). The compounds were dispensed on a 384 well Diamond Well Plate (Axigen, Cat #P-384-120SQ-C—S) using the Biomek FX liquid handling system at 80× solutions of compounds in DMSO. 2× Protein-Substrate mix (final concentration 1.5 nM of EGFR (D770_N771insNPG) and 50 ng/μl of Poly(Glu, Tyr)) was prepared in 1× Assay buffer and 4 µl of mixture per well was added into 384w white Reaction plate with NBS (Coming, Cat #4513). 4 μl of Poly(Glu, Tyr) substrate w/o EGFR in 1× buffer was used for negative control. Plates were centrifuged for 1 min at 200 g. Next step the Compounds were added to Reaction plate using Biomek station via following steps: 1 μl of 80× compounds (in DMSO) were mixed thoroughly with 39 μl of 2× 10 μM ATP in Assay Buffer, then 4 μl of this mixture was added to Reaction plate with 4 μl of Protein-Substrate mix. Plates were centrifuged for 1 min at 200 g and incubated for 1 h at rt. Next 4 μL of ADP-Glo reagent (Promega, ADP-Glo™ Kinase Assay, Cat #V9102) per well was added. Plates were incubated for 30 min at rt. Then 8 μL of Kinase detection reagent (Promega, ADP-Glo™ Kinase Assay, Cat #V9102) per well was added and the Luminescence was measured using Microplate Reader. The % inhibition was then used to calculate the EC50 values. The values of EC50 shown as a letters A-E, where: A<0.001 μM; 0.001 μM<B<0.005 μM; 0.005 μM<C<0.01 μM; 0.01<D<0.05 μM; E>0.05.

[6] = biological target: EGFR (WT) (Homo sapiens (Human), UniProt P00533); assay: Potency of EGFR enzymatic activity inhibition (WT) (ADP-Glo luminescence); type: biochemical; conditions: recombinant EGFR (WT) 4 nM, Poly(Glu, Tyr) substrate, ATP, 1 h at rt
Description: Example D. Primary Assay Used to Determine Potency of EGFR enzymatic activity Inhibition (WT)
Compound activity was determined using recombinant EGFR protein (SignalChem, #E10-112G-10) and Poly(Glu, Tyr) substrate (Sigma-Aldrich, #P0275) in an in vitro enzymatic reaction. The enzymatic assay used to determine activity was a Luminescence assay using a Microplate Reader ClarioStar Plus. The enzymatic reaction was carried out in assay buffer (40 mM TRIS-HCl pH 7.4-7.6, 20 mM MgCl2, 2.5 mM MnCl2, 0.05 mM DTT, 0.1 mg/ml BSA). The compounds were dispensed on a 384 well Diamond Well Plate (Axigen, Cat #P-384-120SQ-C—S) using the Biomek FX liquid handling system at 80× solutions of compounds in DMSO. 2× Protein-Substrate mix (final concentration 4 nM of EGFR and 50 ng/μl of Poly(Glu, Tyr)) was prepared in 1× Assay buffer and 4 μl of mixture per well was added into 384w white Reaction plate with NBS (Coming, Cat #4513). 4 μl of Poly(Glu, Tyr) substrate w/o EGFR in 1× buffer was used for negative control. Plates were centrifuged for 1 min at 200 g. Next step the Compounds were added to Reaction plate using Biomek station via following steps: 1 μl of 80× compounds (in DMSO) were mixed thoroughly with 39 μl of 2× 10 μM ATP in Assay Buffer, then 4 μl of this mixture was added to Reaction plate with 4 μl of Protein-Substrate mix. Plates were centrifuged for 1 min at 200 g and incubated for 1 h at rt. Next 4 μL of ADP-Glo reagent (Promega, ADP-Glo™ Kinase Assay, Cat #V9102) per well was added. Plates were incubated for 30 min at rt. Then 8 μL of Kinase detection reagent (Promega, ADP-Glo™ Kinase Assay, Cat #V9102) per well was added and the Luminescence was measured using Microplate Reader. The % inhibition was then used to calculate the EC50 values. The results for certain compounds are presented in the Table D. The values of EC50 shown as a letters A-E, where: A<0.001 μM; 0.001 μM<B<0.005 μM; 0.005 μM<C<

[7] = system: Ba/F3 (D770_N771insSVD); assay: Cellular growth inhibition assay (CellTiter-Glo), Ba/F3 (D770_N771insSVD); type: cell-based; conditions: Mus musculus, BaF3, 72 h; 3 days of incubation; read-out: Ba/F3 (D770_N771 insSVD) CC50
Method in brief: as §1

[8] = Cellular growth inhibition assay (CellTiter-Glo), Ba/F3 (Empty vector); type: cell-based; conditions: mouse, Ba/F3 cells with empty vector; Ba/F3 (Empty vector) with 10 ng/ml rmIL-3, 3 days of incubation
Method in brief: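 Ba/F3 cells carrying an empty vector were plated in 384-well black clear-bottom plates at 4000 cells per well in 45 μl RPMI containing FBS and 10 ng/ml rmIL-3. Compounds diluted from DMSO stocks were added as 5 μl of 10× solution, giving 0.2% DMSO. After 3 days, CellTiter-Glo was added and luminescence measured.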

[9] = system: Ba/F3 (H773_V774insSVD); assay: Cellular growth inhibition assay (CellTiter-Glo), Ba/F3 (H773_V774insSVD); type: cell-based; conditions: Mus musculus, BaF3, 72 h; 3 days of incubation; read-out: Ba/F3 (H773_V774 insSVD) CC50
[10] = rcm bond, 14-membered ring, Grubbs II (12 mol%), 10.0 mM, 50.0 °C

EGFR (WT), sequence (P00533 25-1210): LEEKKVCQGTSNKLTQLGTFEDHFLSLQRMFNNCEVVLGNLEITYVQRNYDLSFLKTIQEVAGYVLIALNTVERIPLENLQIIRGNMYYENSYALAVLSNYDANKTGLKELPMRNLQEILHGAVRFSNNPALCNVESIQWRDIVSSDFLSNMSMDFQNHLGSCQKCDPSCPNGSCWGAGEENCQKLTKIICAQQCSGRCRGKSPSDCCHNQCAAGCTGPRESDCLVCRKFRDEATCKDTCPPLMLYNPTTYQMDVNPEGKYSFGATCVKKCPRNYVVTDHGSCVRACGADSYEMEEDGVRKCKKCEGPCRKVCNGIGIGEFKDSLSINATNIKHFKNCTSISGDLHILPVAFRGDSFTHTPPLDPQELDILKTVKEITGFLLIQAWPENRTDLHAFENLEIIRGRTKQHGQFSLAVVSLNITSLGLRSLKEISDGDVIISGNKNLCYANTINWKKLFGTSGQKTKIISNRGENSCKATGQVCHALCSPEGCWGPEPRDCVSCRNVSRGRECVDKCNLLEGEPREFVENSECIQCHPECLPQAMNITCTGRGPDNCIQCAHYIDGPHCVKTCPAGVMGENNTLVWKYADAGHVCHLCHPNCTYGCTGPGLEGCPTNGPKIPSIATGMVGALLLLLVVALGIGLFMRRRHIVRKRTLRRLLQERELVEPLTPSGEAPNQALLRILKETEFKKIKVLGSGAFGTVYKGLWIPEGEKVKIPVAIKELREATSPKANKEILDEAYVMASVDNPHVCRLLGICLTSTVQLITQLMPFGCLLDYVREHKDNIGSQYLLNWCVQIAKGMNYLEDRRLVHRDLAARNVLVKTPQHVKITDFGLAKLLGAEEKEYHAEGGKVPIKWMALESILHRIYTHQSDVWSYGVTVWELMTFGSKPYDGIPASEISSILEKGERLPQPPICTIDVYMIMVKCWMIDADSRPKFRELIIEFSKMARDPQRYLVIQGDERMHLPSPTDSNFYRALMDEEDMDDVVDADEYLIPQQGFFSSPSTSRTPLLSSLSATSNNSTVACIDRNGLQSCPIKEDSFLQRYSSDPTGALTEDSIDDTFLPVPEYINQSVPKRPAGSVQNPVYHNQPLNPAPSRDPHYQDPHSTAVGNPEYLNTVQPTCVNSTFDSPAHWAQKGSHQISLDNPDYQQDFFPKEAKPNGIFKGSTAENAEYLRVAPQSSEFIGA
EGFR (D770_N771insNPG), sequence (P00533 other isoform, or with tags, fused parts or gaps del 1-694/ins NPG behind 770 limits assumed): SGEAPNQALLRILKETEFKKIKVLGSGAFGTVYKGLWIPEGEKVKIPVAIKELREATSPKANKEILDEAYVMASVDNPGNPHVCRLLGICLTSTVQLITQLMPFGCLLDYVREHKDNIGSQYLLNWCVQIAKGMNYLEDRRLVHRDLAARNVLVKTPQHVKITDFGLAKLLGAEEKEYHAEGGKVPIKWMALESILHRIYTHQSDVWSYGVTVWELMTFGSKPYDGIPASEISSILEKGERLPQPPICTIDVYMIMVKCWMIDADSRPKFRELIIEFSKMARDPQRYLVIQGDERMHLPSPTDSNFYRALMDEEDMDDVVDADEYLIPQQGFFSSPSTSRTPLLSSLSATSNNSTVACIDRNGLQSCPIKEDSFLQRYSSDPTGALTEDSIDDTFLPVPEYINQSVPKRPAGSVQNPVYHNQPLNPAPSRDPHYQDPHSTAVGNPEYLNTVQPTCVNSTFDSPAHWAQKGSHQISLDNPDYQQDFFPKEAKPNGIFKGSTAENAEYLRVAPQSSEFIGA

## COc1c(F)cccc1Nc1c2[nH]c3c1C(=O)NCC3CC=CCCOc1cnccc1-2 (centres unmarked)
[1]; from C=CCCOc1cnccc1-c1[nH]c2c(c1Nc1cccc(F)c1OC)C(=O)NCC2CC=C, rcm bond, 12-membered ring, Grubbs II (15 mol%), 10.0 mM, 50.0 °C
  ring closure, isolated yield: 71%

## 19-[(3-Fluoro-2-methoxyphenyl)amino]-7,8,10,11,12,12a,13,14-octahydro-6H-7,9-methano-16,18-methenodipyrido[3,4-b:4′,3′-f][1,5,11]oxadiazacyclotetradecin-15(17H)-one
[1]; amine bond, 14-membered ring, STAB/DIEA, 190.0 mM, 25.0 °C
  ring closure, isolated yield: 36%

## 29-(3-Fluoro-2-methoxyanilino)-18,21-dioxa-1,6,10,15,24-pentaazapentacyclo[22.2.2.1^8,110^4,9.0^12,17]nonacosa-8,11(29),12(17),13,15-pentaene-2,7-dione
Amide bond, 18-membered ring, EDCI, DMF, 43.0 mM, 25.0 °C
  ring closure, yield after HPLC: 16%

## COc1c(F)cccc1Nc1c2[nH]c3c1C(=O)NC[C@@H]3CCCCOCCOc1cnccc1-2 [Compound 115]
[2]
  CC50: 100 to 1000 nM
[3]
  CC50: 0.1 to 1 nM
[4]
  CC50: 100 to 1000 nM
[5]
  EC50: 1 to 5 nM
[6]
  EC50: 1 to 5 nM
[7]
  CC50: 10 to 100 nM
[8]
  CC50 at 3 days: > 10000 nM
[9]
  CC50: 10 to 100 nM

## (13E)-23-[(3-Fluoro-2-methoxyphenyl)amino]-8,11-dioxa-5,18,22-tniazatetracyclo[18.2.1.0^2,7.0^16′2]tricosa-1(23),2,4,6,13,20-hexaen-19-one
[1]; [10]
  ring closure, isolated yield: 16%

## (13Z)-23-[(3-fluoro-2-methoxyphenyl)amino]-8,11-dioxa-5,18,22-triazatetracyclo[18.2.10^2,7.0^16,21]tricosa-1(23),2,4,6,13,20-hexaen-19-one
[1]; [10]
  ring closure, isolated yield: 4%

## (19E)-28-[(3-Fluoro-2-methoxyphenyl)amino]-3,22-dioxa-6,11,15-triazapentacyclo[21.3.1^10,13.0^4,9.0^12,17]octacosa-1(27),4,6,8,10(28),12,19,23,25-nonaen-14-one
Rcm bond, 16-membered ring, Hoveyda-Grubbs II (10 mol%), DCM, 3.6 mM
  ring closure, yield after HPLC: 20%
